For one series, the system named is esterase. The series can be described thus: Esterase mediated conversion of treprostinil compounds to treprostinil. The format is in vitro ADME. The following applies: incubation with esterase at 37° C., 1 hour (FIG. 28, 30). On the procedure:
A set of studies was conducted to determine the conversion kinetics to treprostinil of linear treprostinil compounds versus various branched treprostinil compounds. 0.4 mM of linear C8-TR or branched treprostinil compounds 2-dimethyl-1-propanyl-TR, 3,3-dimethyl-1-butanyl-TR, 2-ethyl-1-butanyl-TR, 5-nonanyl-TR, or 3-pentanyl-TR (see below for structures) were incubated with 0.2 U esterase at 37° C. for 1 hour, and the conversion (% of total) was calculated at 0.25, 0.5, 0.75, or 1 hour incubation time. • C8-TR (i.e., the compound of Formula (A) wherein
The conversion is relative to the C8-TR compound and conversion was measured at 1 hr. post esterase incubation. • C8-TR (i.e., the compound of Formula (A) wherein
Conversion was measured at 1 hr. post esterase incubation. • 4C7-TR (i.e., the compound of Formula (A) wherein

The next series concerns the target T1, EP2 prostanoid receptor (Homo sapiens, UniProt P43116).
T1 construct: host or cells: CHO-K1
Kind of series: GloSensor cAMP assay in CHO-K1 cells co-transfected with the EP2 receptor. The format is cell-based. Particulars: for ranking of activity of the treprostinil compounds: kinetic profile, 10 μM and 5 μM, FIG. 21. The source says: cAMP is a second messenger involved in signal transduction of G-protein coupled receptors (GPCRs) acting through Gα-s and Gα-i proteins. Because the treprostinil receptor is a GPCR, the assay provides an indication of whether the respective prostacyclin compound (or metabolite thereof) binds its receptor and activates the GPCR cell signaling cascade. The GloSensorTM assay harnesses a genetically modified form of firefly luciferase into which a cAMP-binding protein moiety has been inserted. Upon binding of cAMP, a conformational change is induced leading to increased light output. The EP2 prostanoid receptor was co-transfected with the GloSensorTM plasmid (Promega) into CHO-K1 cells as follows. CHO-K1 cells were harvested when the monoloayer was at 50-90% confluence. First, cells were washed with 5 mL PBS. […] The media was aspirated, and the cell pellet was resuspended in 10 mL of growth media. Cell number was determined using a hemacytometer. Each well of a culture treated 96 well flat bottom plate (Costar, Cat #: 3917) was seeded with 1×10^4 cells per 100 μL antibiotic-free growth media. […] For small scale transfections of up to 20 wells, the pGLoSensor-22F cAMP plasmid (Promega, Cat #: E2301) (2 μg): (EP2) (10 ng) (Origene, Cat #: SC126558):pGEM-3Zf(+) (10 ng) (Promega, Cat #: P2271) ratio was diluted to a final concentration of 12.6 ng/μL (total plasmid) in Opti-MEM I reduced-serum medium (Life Technologies, Cat #: 1985062). Next, 6 μL of FuGENE HD transfection reagent (Promega, Cat #: E2311) was added to 160 μL of diluted plasmid and mixed carefully by gentle pipetting. The complex was incubated at room temperature for 0 to 10 minutes, and then 8 μL of the complex was added per well of a 96 well white assay plate (Costar, Cat #: 3917) and gently mixed without disturbing the cell monolayer. […] Following incubation, cells were treated and analyzed. For larger scale transfections, the aforementioned steps were scaled up accordingly, and cells were frozen following the last incubation. In order to prepare frozen transfected CHO-K1 cells, the media was aspirated from culture flasks and cells were rinsed with 5 mL PBS. […] Cell number was determined using a hemacytometer. The media was aspirated, and the cell pellet was resuspended in freezing media (Millipore, cat #: S-002-5F) at 2.5×10^6 cells/vial. Transfected cells were incubated overnight at -80° C. before transfer to liquid nitrogen for long term storage. […] In preparation for cAMP measurement, the cells were equilibrated with the GloSensor cAMP reagent prior to treatment. For equilibration, the medium was carefully removed from the individual well. Next, 100 μL of equilibration medium ([…] of Glosensor Reagent stock solution (Promega, Cat #: E291), 10% FBS (Hyclone, Cat #: SH30071.03) and 88% CO2 independent medium (Life Technologies, Cat #: 18045088)) was added per well of the 96-well plate, and added to the side of each well. The plate was then incubated for 2 hours at room temperature. A first pre-read measurement was taken using a microplate reader (MicroLumat Plus). Plates were incubated for an additional 10 minutes at room temperature, followed by a second pre-read measurement. […] Following treatment, each plate was read every 5 minutes for the duration of the assay using a microplate reader (MicroLumat Plus). In order to determine the fold change in cAMP relative to the control, the transfection efficiency was first determined by dividing the second pre-read measurement by the average of the corresponding pre-read measurements. Next, the normalized relative light units (RLUs) of the samples were determined by dividing the plate read measurement by the transfection efficiency. The fold change in cAMP relative to the control was then determined by dividing the normalized RLU of the samples by the normalized RLU of the control. The cAMP assay was validated using free treprostinil. […] Luminescence was then measured at room temperature. […]

The test system of series [1] is Rat alveolar NR8383 cells. Kind of series: NR8383 cell proliferation assay (Presto Blue). It is filed as cell-based. The method, then: Rat alveolar NR8383 cells were harvested when the monolayer was 50-90% confluent (use passage 5-11). Because the NR8383 cells include both adherent and non-adherent cells, media was transferred to a 50 mL Falcon tube. To obtain the cells remaining in the flask, 2 mL of plain media was added, and the remaining cells were scraped out of the 75 cm^2 flask with a cell scraper and added to the 50 mL tube. […] SH30071.03)+1×Pen-Strep (Life Technologies, cat #: 15410-122)). Cell number was determined using a hemacytometer. […] Measurements and calculations were made as described above for the CHO-K1 cells.

In another series the test system is CHO-K1 cells. The series can be described thus: CHO-K1 cell proliferation assay (Presto Blue). On the procedure: CHO-K1 cells were harvested when the cell monolayer was 50-90% confluent (use passage 4-11). Media was aspirated out of the flask, and cells were rinsed with 2 mL of F12 media. Next, 1 mL of pre-warmed (37° C.) 0.25% trypsin-EDTA (Life Technologies, Cat #: 25300054) was added, and cells were dislodged from the flask by tapping it on the side. Complete growth media (F12 (Life Technologies, Cat #: 31765092)+10% FBS (Hyclone, Cat #: SH30071.03)+1× Pen-Strep (Life Technologies, cat #15140-122) was then added at a volume of 10 mL. Cells were centrifuged at 250×g for 5 minutes at room temperature, and the media was aspirated. The cell pellet was resuspended in 10 mL complete growth media. Cell number was determined using a hemacytometer. Cells were then seeded at 2000 cells per well of a 96-well plate in 100 μL of complete growth media. The plate was incubated overnight at 37° C. and 5% CO2 in a water-jacketed incubator.
The next day, 80 μL of fresh complete media was added to each well, and CHO-K1 cells were challenged with treprostinil compound and composition treatments. The working solutions were prepared at 10× concentration, and following 2 fold serial dilutions, 20 μL aliquots were added per well to arrive at a final 1× concentration. Following a 48 hour incubation at 37° C. and 5% CO2 in a water-jacketed incubator, the inhibitory effect on cell proliferation was determined. Plates were analyzed using 20 μL of Presto Blue reagent (Life Technologies, cat #: A13262) per well. The reagent was mixed, and plates were incubated for 1 hour at 37° C. and 5% CO2 in a water-jacketed incubator. Plates were read using either a CytoFluor Series 4000 (PerSeptive BioSystems) or Synergy Neo microplate reader (BioTek) with emission λ: 590 nm and excitation λ: 560 nm.
at concentrations ranging from 0.55 μM to 125 μM. Following a 48 hour incubation period, the inhibitory effect of the treprostinil derivative compositions on cell proliferation was determined.
C2, C3, C4, C5, C6, C8, C10 or Cu straight chain alkyl, at dosages ranging from 0.098 μM to 25 μM. Following a 48 hour incubation period, the inhibitory effect on cell proliferation was determined.
Following a 72 hour incubation period, the inhibitory effect on cell proliferation was determined. Following a 48 hour incubation period, the inhibitory effect on cell proliferation was determined.
Similarly, CHO-K1 cells were challenged with the treprostinil compositions T612 (R2=C2), T613 (R2=C8) at concentrations ranging from 1.41 μM to 180 μM.

Series [2] in a line: Treprostinil alkyl ester conversion to treprostinil in rat lung tissue homogenate. The format is in vitro ADME. The following applies: 37° C., 200 nM, 4 hours, 10 mg/mL of protein. On the procedure:
Treprostinil alkyl ester conversion to treprostinil was also measured in the presence of rat, dog and monkey lung tissue homogenate at 37° C. Here, data were calculated based on fit of exponential increase to the maximum (experiments performed in duplicate). The results of this study are provided below in Table 2A and FIG. 37. […] Both FIG. 37 experiments (left and right graphs) were performed in duplicate and the lines represent nonlinear exponential regression assuming 1 phase decay.

A short description of series [3]: Particle size characterization of treprostinil compositions (QELS). The format is physicochemical. The following applies: particles of compositions comprising the alkyl ester, FIG. 2.
Procedure: All particle size measurements were performed using a Wyatt Technology Mobius™ Zeta Potential/Particle Sizing Instrument in Quasi-elastic light scattering (QELS) mode. Composition aliquots were diluted 10-fold in pre-filtered (0.02 μm pore filter) ultrapure of deionized H2O. Light scattering data was collected and converted into particle size and size distribution using Dynamics® v. […] Reported average particle size diameter is based on the cumulants model, which mathematically fits particle diffusion constants (determined by the raw scattering intensities of particles in a suspension) to obtain the particle size mean and a distribution of particle sizes around the mean diameter.
Particle uniformity was determined using the software-calculated polydispersity (% PD). Polydispersity is defined as the standard deviation of the particle size distribution from the mean particle size value. % PD normalizes the polydispersity to the mean diameter by dividing by the mean size and multiplying by 100. These parameters indicate whether a particle suspension has one or more size populations of particles (monomodal versus multimodal). […]
Dynamics® polydispersity parameter represents a monodisperse population of particles if % PD≤15. A calculated % PD≥57% represents a polydisperse population of particles.
Where [4] appears, read: unformulated alkyl esters, 72 hour incubation.
The mark [5] stands for this setting: unformulated alkyl esters, 48 hour incubation.

“Also recorded” adds a separate entry of the source. Read-outs that look alike come from different tables or passages of the source.

T1 sequence (P43116 whole entry): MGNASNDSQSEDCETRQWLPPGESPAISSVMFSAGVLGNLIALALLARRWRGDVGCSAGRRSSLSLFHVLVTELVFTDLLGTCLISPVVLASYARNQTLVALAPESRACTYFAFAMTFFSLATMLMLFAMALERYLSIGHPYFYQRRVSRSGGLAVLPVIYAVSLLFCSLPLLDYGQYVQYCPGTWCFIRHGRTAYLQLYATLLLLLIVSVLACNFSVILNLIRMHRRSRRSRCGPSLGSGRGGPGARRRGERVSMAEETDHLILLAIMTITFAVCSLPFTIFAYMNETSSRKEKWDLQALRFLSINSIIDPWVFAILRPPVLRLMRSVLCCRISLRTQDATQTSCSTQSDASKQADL

Regarding `CCCCCC(O)CCC1C(O)CC2Cc3c(cccc3OCC(=O)OC(CCC)CCCC)CC21` (mixture of isomers) [Compound 4C8-TR], in the series with esterase, the “esterase mediated conversion rate to treprostinil (comparison)” value (from here on “esterase mediated conversion rate”) was “slower conversion rate than the linear compound C8-TR; also recorded: slower conversion rate than the symmetrical compounds (4C7-TR and 5C9-TR)”.

As for `CCCCCC[C@@H](C)OC(=O)COc1cccc2c1C[C@H]1C[C@@H](O)[C@H](CC[C@@H](O)CCCCC)[C@H]1C2` [(R)-2C8-TR], the “esterase mediated conversion rate” value in the series on esterase was “no significant difference between the conversion rates of R and S isomers”.

Consider `CCCCCC[C@H](C)OC(=O)COc1cccc2c1C[C@H]1C[C@@H](O)[C@H](CC[C@@H](O)CCCCC)[C@H]1C2` [(S)-2C8-TR], for which the “esterase mediated conversion rate” value in the series with esterase was “no significant difference between the conversion rates of R and S isomers”.

Take `CCCCC[C@H](O)CC[C@@H]1[C@H]2Cc3cccc(OCC(=O)OC(CCC)CCC)c3C[C@H]2C[C@H]1O` [Compound 4C7-TR]: in the series on esterase, the “esterase mediated conversion rate” value was “slower conversion rate than the linear compound C8-TR”.

Turning to `CCCCC[C@H](O)CC[C@@H]1[C@H]2Cc3cccc(OCC(=O)OC(CCCC)CCCC)c3C[C@H]2C[C@H]1O` [Compound 5C9-TR, 5-nonanyl-treprostinil], the “ranking of activity of the treprostinil compounds” value on EP2 prostanoid receptor is recorded as “C12-TR>C14-TR>5-nonanyl-TR>C16-TR”. Besides, the entries for the “esterase mediated conversion rate” value with esterase and in the series with esterase (listed as 5-nonanyl-TR) were “slower conversion rate than the linear compound C8-TR” and “slower conversion rate than linear C8-TR”, respectively.

On to `CCCCC[C@H](O)CC[C@@H]1[C@H]2Cc3cccc(OCC(=O)OCC)c3C[C@H]2C[C@H]1O` [Compound C2-TR, treprostinil ethyl ester], for which the “Effect on cell proliferation, NR8383 Cells (0.195 μM-25 μM)” value (“Effect … NR8383 Cells (0.195 μM-25 μM)” below) in series [1] (setting [4]) is reported as “No detectable cell inhibition”. In addition, in the series on CHO-K1 cells (setting [5]), the “Effect on cell proliferation, CHO-K1 Cells (0.195 μM-25 μM)” value (“Effect … CHO-K1 Cells (0.195 μM-25 μM)” below) is given as “No detectable cell inhibition”.

For the molecule `CCCCC[C@H](O)CC[C@@H]1[C@H]2Cc3cccc(OCC(=O)OCCC)c3C[C@H]2C[C@H]1O` [Compound C3-TR], the “Effect … NR8383 Cells (0.195 μM-25 μM)” value in series [1] (setting [4]) is recorded as “No detectable cell inhibition”. In addition, the “Effect … CHO-K1 Cells (0.195 μM-25 μM)” value in the series on CHO-K1 cells (setting [5]) is given as “No detectable cell inhibition”.

Regarding `CCCCC[C@H](O)CC[C@@H]1[C@H]2Cc3cccc(OCC(=O)OCCCC)c3C[C@H]2C[C@H]1O` [Compound C4-TR], in series [1] (setting [4]), the “Effect … NR8383 Cells (0.195 μM-25 μM)” value is recorded as “No detectable cell inhibition”. In the series with CHO-K1 cells (setting [5]), the “Effect … CHO-K1 Cells (0.195 μM-25 μM)” value is “No detectable cell inhibition”.

Turning to `CCCCCCOC(=O)COc1cccc2c1C[C@H]1C[C@@H](O)[C@H](CC[C@@H](O)CCCCC)[C@H]1C2` [Compound C6-TR], the “Effect … NR8383 Cells (0.195 μM-25 μM)” value in series [1] (setting [4]) is “No detectable cell inhibition”. Moreover, in the series on CHO-K1 cells (setting [5]), the “Effect … CHO-K1 Cells (0.195 μM-25 μM)” value was “No detectable cell inhibition”.

`CCCCCCCCCCCCCCOC(=O)COc1cccc2c1C[C@H]1C[C@@H](O)[C@H](CC[C@@H](O)CCCCC)[C@H]1C2` [Compound C14-TR, tetradecyl-treprostinil]: the “Rate of treprostinil alkyl ester conversion” value in series [2] was 0.4 nmOL/h * g of protein. The “ranking of activity of the treprostinil compounds” value on EP2 prostanoid receptor is “C12-TR>C14-TR>5-nonanyl-TR>C16-TR”. The “polydispersity (% PD)” value in series [3] is reported as “around 15%”.

For “treprostinil decyl ester [Compound C10-TR]”, in series [1], the “Effect … NR8383 Cells (0.195 μM-25 μM)” value was “No detectable cell inhibition”. Besides, the “Effect … CHO-K1 Cells (0.195 μM-25 μM)” value in the series on CHO-K1 cells is recorded as “No detectable cell inhibition”. The “duration of cAMP levels compared with free treprostinil and the C6, C8, and C12 derivatives” value on EP2 prostanoid receptor (5 μM, FIG. 4 and FIG. 5) is “sustained significantly longer”. At EP2 prostanoid receptor (10 μM, composition, FIG. 3A), the “cAMP levels compared with free treprostinil” value is on record as “equivalent to free treprostinil” and the “cAMP levels sustained for” value is listed as “at least 6 hours”. For the same molecule, the “cAMP response compared with the response induced by free treprostinil” value at EP2 prostanoid receptor (compositions, 5 μM, FIG. 4) is reported as “greater than or equivalent to the response induced by free treprostinil”. The cAMP response level result at EP2 prostanoid receptor (unformulated compounds, 5 μM, FIG. 5) is given as “equivalent to free treprostinil”. In addition, the “polydispersity (% PD)” value in series [3] is “around 15%”.

For the origin of these results see patent publication US11795135B2, “Prostacyclin compounds, compositions and methods of use thereof” (Insmed Incorporated, priority 2013, dated 2023).
